Entries after “also recorded” stand apart in the source; their conditions may differ. Read-outs that look alike come from different tables or passages of the source. Ends that are not written are not given here.
Columns and labels:
[1] = target: T1, Ang-(1–7) peptidase purified from sheep brain medulla (Ovis aries, UniProt A0ACI6RWG7); assay: Inhibitor profile of 125I-Ang-; assay type: biochemical; conditions: cocktail; for effect of inhibitor on peptidase activity (in words): enriched medullary peptidase, 60 min, 37°C
[2] = target: Ang-(1–7) peptidase activity in CSF (Ovis aries, UniProt A0ACI6RWG7); assay: Inhibitor profile of 125I-Ang-; assay type: biochemical, sheep; conditions: CSF 25 µl, cocktail, 60 min, 37°C
[3] = target: T1, Ang-(1–7) peptidase purified from sheep brain medulla
ACE = conditions: read-out: reported IC50; ref Doulut et al. 1993; cited from earlier work

O[C@@H](CS)[C@@H](O)CS (racemic) [DTT, dithiothreitol]
effect of inhibitor on peptidase activity (in words) ([1]; inhibitor 5 mM, N=3): partial inhibition

aprotinin
effect of inhibitor on peptidase activity (in words) ([1]; inhibitor 80 µM): insensitive
Inhibitor Sensitivity (% of control) ([2]; inhibitor 80 µM): 100 % of control

O=S(=O)(F)Cc1ccccc1 [PMSF, phenylmethylsulfonyl fluoride]
effect of inhibitor on peptidase activity (in words) ([1]; inhibitor 100 µM, N=3): insensitive; also recorded: did not inhibit activity

c1cnc2c(c1)ccc1cccnc12 [o-phenanthroline]
effect of inhibitor on peptidase activity (in words) ([1]; inhibitor 1 mM, N=3): abolished peptidase activity; also recorded: sensitive

DRVYIHPFHL [Ang I]
hydrolysis of unlabeled peptide by the peptidase ([3]; sheep, purified brain medulla peptidase, 24 h, 400 µM): < 5%

CC[C@H](C)[C@H](NC(=O)[C@H](Cc1ccc(O)cc1)NC(=O)[C@@H](NC(=O)[C@H](CCCNC(=N)N)NC(=O)[C@@H](N)CC(=O)O)C(C)C)C(=O)N[C@@H](Cc1cnc[nH]1)C(=O)N1CCC[C@H]1C(=O)N[C@@H](Cc1ccccc1)C(=O)O [Ang II]
hydrolysis of unlabeled peptide by the peptidase ([3]; HPLC analysis, unlabeled peptide 0.4 mM, 24 hours, 37°C): < 5%

CC(C)C[C@H](NC(=O)[C@@H](CC(=O)NO)Cc1ccccc1)C(=O)O [JMV-390, N-[3-[(hydroxyamino)carbonyl]-1-oxo-2(R)-benzylpropyl]-L-leucine]
effect on the Ang-(1–4) peak (in words) ([1]; 1 nM JMV-390, purified enzyme): reduced the Ang-(1–4) peak
effect on peptidase activity (in words) ([1]; 100 nM JMV-390, purified enzyme): essentially abolished activity
effect on the peak of Ang-(1–4) from unlabeled Ang-(1–7) (in words) ([3]; 10 µM JMV-390, Ang-(1–7) 400 µM, 24 hours, 37°C (Figure 6B)): abolished
IC50 (ACE): 70 µM

B1: soybean trypsin inhibitor (protein, UniProt P01070 25-205, looked up)
Trypsin inhibitor A: DFVLDNEGNPLENGGTYYILSDITAFGGIRAAPTGNERCPLTVVQSRNELDKGIGTIISSPYRIRFIAEGHPLSLKFDSFAVIMLCVGIPTEWSVVEDLPEGPAVKIGENKDAMDGWFRLERVSDDEFNNYKLVFCPQQAEDDKCGDIGISIDHDDGTRRLVVSKNKPLVVQFQKLDKESL
effect of inhibitor on peptidase activity (in words) ([1]; inhibitor 100 µM, N=3): insensitive
Inhibitor Sensitivity (% of control) ([2]; inhibitor 100 µM, mean ± SEM): 101 ± 2 % of control
